# Experimental data published in US8445510B2, “Fused bicyclic kinase inhibitors” (OSI Pharmaceuticals, LLC, priority 2011, dated 2013).
# pIC50: −log10 of the molar value.
# Key:
# Format in all cases: cell-based
# MKN45 cells = assay: MKN45 cell proliferation assay (CellTiter-Glo); details: Homo sapiens, MKN-45, 72 h; MKN45 cell line; 3 days incubation; at least duplicate experiments; read-out: Prolif. IC50
# Experimental: The effect of inhibitors on the proliferation of MKN45 cells was determined using the following protocol. MKN45 cells were plated in Corning 3917 96-well white tissue culture treated plates in growth medium (RPMI, 10% FCS) at a density of 5000 cells/well in a total volume of 135 μL and incubated at 37° C., 5% CO2, 95% humidity overnight. The following day, one-tenth volume of a 10× concentration of compounds was added to the wells in an 8-point dilution series. The dilution series was composed of an initial 1:5 dilution of a 10 mM stock of compound in DMSO, followed by serial 1:4 dilutions in DMSO, then a 1:20 dilution in growth medium prior to the 1:10 dilution into the cell plate. […] The typical dilution range is 10 μM to 0.6 nM. Once the compound was added to the cells, plates were incubated for 3 days at 37° C., 5% CO2 at 95% humidity. On the third day, after allowing all cells and reagents to come to room temperature, 25 μL of CellTiter-Glo reagent (Promega #G7573) was added to the wells. Plates were shaken on a platform for 10 minutes prior to reading luminescence for 0.1 seconds. The signal of the control wells was taken as 100% growth and growth inhibition was expressed as percent of control. IC50 values were determined from the percent of control data using a standard four-parameter model.
# (§1) The IC50 values of exemplary compounds of the present invention determined in a cell proliferation assay using the MKN45 cell line according to the procedures described herein in at least duplicate experiments are abbreviated as follows and are shown in Table 2: A, IC50≦0.05 μM; B, 0.05 μM<IC50≦0.2 μM; C, 0.2 μM<IC50≦1 μM; D, IC50>1 μM; ND, not determined. The Example # of Table 2 corresponds to the compound example number as illustrated in the Examples section.
# Treatment of this cell line with a selective c-MET inhibitor led to induction of apoptosis and inhibition of proliferation, whereas non-MET-amplified cell lines were not affected [Smolen et al., Proc. Natl. Acad. Sci. USA, 103(7):2316-2321 (2006)]. This cell line is thus “driven” by c-MET, and antiproliferative effects correlate very well with the inhibition of c-MET phosphorylation so that the cell proliferation IC50, values can be used as surrogate for the c-MET cell mechanistic IC50, values. Under the assay conditions described herein, the IC50 values correlate nearly 1:1.
# RON = target: T1, RON (Homo sapiens, UniProt Q04912); assay: sfRON cell mechanistic assay (HeLa), phosphorylated RON ELISA; details: HeLa cells transfected with sfRON; inhibition of phosphorylated RON; four hours incubation; at least duplicate experiments; read-out: sfRON mech IC50
# T1 sequence (Q04912 913-1400): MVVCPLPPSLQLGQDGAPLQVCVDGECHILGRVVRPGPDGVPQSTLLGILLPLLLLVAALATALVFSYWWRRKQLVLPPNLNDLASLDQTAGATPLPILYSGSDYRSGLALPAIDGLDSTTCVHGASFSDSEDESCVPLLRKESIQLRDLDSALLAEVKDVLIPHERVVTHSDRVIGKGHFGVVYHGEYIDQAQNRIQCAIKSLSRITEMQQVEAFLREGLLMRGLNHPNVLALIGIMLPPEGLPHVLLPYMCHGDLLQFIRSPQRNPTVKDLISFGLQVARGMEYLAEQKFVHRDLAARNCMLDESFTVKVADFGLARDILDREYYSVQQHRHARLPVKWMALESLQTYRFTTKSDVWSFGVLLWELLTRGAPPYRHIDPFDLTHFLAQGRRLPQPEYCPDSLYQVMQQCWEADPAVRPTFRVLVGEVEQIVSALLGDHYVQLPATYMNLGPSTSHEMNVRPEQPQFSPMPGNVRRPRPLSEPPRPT
# Experimental: The cellular activity of the compounds of the present invention against RON may be determined by the following procedure. HeLa cells were plated in Falcon 3072 96-well plates in growth media (DMEM, 10% FBS, 1% L-glutamine) at a density of 10000 cells/well and incubated at 37° C., 5% CO2 overnight. The following day, cells were transfected with 0.2 μg sfRON-pcDNA plasmid DNA with 0.5 μL Lipofectamine-2000 per well in the presence of 50 μL OPTI-MEM, incubated at 37° C., 5% CO2 overnight. Costar 3915 96-well assay plates were coated with rabbit Anti-RON antibody at 2.0 μg/mL, sealed, and incubated overnight at 4° C. On the third day, coated plates were washed with PBS and blocked with 3% BSA. For the sfRON transfected cells, one-tenth volume of a 10× concentration of compounds was added to the wells in a 6-point dilution series. The dilution series was composed of an initial 1:5 dilution of a 10 mM DMSO stock solution of compound in DMSO, followed by a 1:10 dilution in growth media, for a final DMSO concentration on cells of 0.5%. Control wells were treated with 0.5% DMSO. The typical range of dilution was 10 μM to 3 nM. Once compound was added to the cells, plates were incubated for four hours at 37° C., 5% CO2. Plates were then washed in PBS, and lysed in triton-based lysis buffer. Lysates were transferred to the blocked capture plates. The phosphorylated RON levels were measured by incubating with a Goat polyclonal antibody against phosphorylated RON ([pYpY1238/1239]) followed by an anti-Goat antibody conjugated to HRP. Signal was measured on a Wallac Victor plate reader with luminance. The DMSO signal of the control wells was defined as 100% and the percent of inhibition of phosphorylated RON was expressed as percent of control. IC50 values were determined from the percent of control data using a standard four-parameter model.
# The IC50 values of exemplary compounds of the present invention determined in a sfRON cell mechanistic assay using the HeLa cell line according to the procedures described herein in at least duplicate experiments are abbreviated as follows and are shown in Table 3: A, IC50≦0.2 μM; B, 0.2 μM<IC50≦1.0 μM; C, IC50>1 μM; ND, not determined. The Example # of Table 3 corresponds to the compound example number as illustrated in the Examples section.
# Karpas-299 cells = assay: Karpas-299 cell proliferation assay (CellTiter-Glo); details: Homo sapiens, 72 h; Karpas-299 cell line (NPM-ALK); 3 days incubation; at least duplicate experiments; read-out: Prolif. IC50
# Experimental: The effect of inhibitors on the proliferation of Karpas-299 cells (DSMZ no. ACC 31) was determined using the following protocol. Karpas-299 cells were plated in 96-well white tissue culture treated plates (Corning 3917) in growth medium (RPMI, 10% FCS) at a density of 5000 cells/well in a total volume of 135 μL and incubated at 37° C., 5% CO2, 95% humidity overnight. The following day, one-tenth volume of a 10× concentration of compounds was added to the wells in an 8-point dilution series. Compounds were serially diluted (1:4) in DMSO from a 10 mM stock solution prior to dilution in growth media to the 10× working concentrations (5% DMSO). Final concentration of DMSO in compound-treated wells was 0.5%. Control wells containing growth media or growth media/0.5% DMSO were included in all test plates. […] Once the compounds were added to the cells, plates were incubated for 3 days at 37° C., 5% CO2 at 95% humidity. After 72 hours, all cells and reagents were equilibrated to room temperature and 15 μL of CellTiter-Glo reagent (Promega # G7573) was added to each well. Plates were shaken on a platform for 10 minutes at room temperature prior to reading luminescence. The value of the signal of the control wells was set as 100% growth and growth inhibition was expressed as percent of control. IC50 values were determined from the percent of control data using a standard four-parameter curve fit equation.
# as §1, with “the Karpas-299” for “the MKN45”, “Table 5:” for “Table 2:”, “Table 5” for “Table 2”
# The Karpas-299 cell line has a t(2; 5) chromosomal translocation and expresses the NPM-ALK fusion protein, resulting in constitutively active ALK. […] Ther. 6(12):3314-22 (2007)]. With this “ALK-driven” cell line, the cell proliferation IC50 values can thus be used as surrogate for the p-ALK cell mechanistic IC50 values.
Compound,pIC50 (MKN45 cells),pIC50 (RON),pIC50 (Karpas-299 cells)
"COc1ccc(F)c(Cl)c1[C@@H](C)c1c[nH]c2ncc(-c3cnn([C@H]4CC[C@@H](N5CCNCC5)CC4)c3C)cc12 [Example 56, 3-[(1S)-1-(2-Chloro-3-fluoro-6-methoxyphenyl)ethyl]-5-{5-methyl-1-[cis-4-(piperazin-1-yl)cyclohexyl]-1H-pyrazol-4-yl}-1H-pyrrolo[2,3-b]pyridine]",6.70 to 7.30,< 6.00,6.70 to 7.30
"COc1ccc(F)c(Cl)c1[C@H](CF)c1c[nH]c2ncc(-c3cnn([C@H]4CC[C@H](O)CC4)c3C)cc12 [Example 120, trans-4-(4-{3-[(1R)-1-(2-Chloro-3-fluoro-6-methoxyphenyl)-2-fluoroethyl]-1H-pyrrolo[2,3-b]pyridin-5-yl}-5-methyl-1H-pyrazol-1-yl)cyclohexanol]",6.00 to 6.70,< 6.00,6.00 to 6.70
"Cc1c(-c2cnc3[nH]cc([C@H](C)c4c(OC(F)F)ccc(F)c4Cl)c3c2)cnn1[C@H]1CC[C@@H](O)CC1 [Example 86, cis-4-[4-(3-{(1S)-1-[2-Chloro-6-(difluoromethoxy)-3-fluorophenyl]ethyl}-1H-pyrrolo[2,3-b]pyridin-5-yl)-5-methyl-1H-pyrazol-1-yl]cyclohexanol]",≥ 7.30,6.00 to 6.70,≥ 7.30
"Cc1c(-c2cnc3[nH]cc([C@H](CF)c4c(Cl)ccc(F)c4Cl)c3c2)cnn1[C@H]1CC[C@H](O)CC1 [Example 118, trans-4-(4-{3-[(1S)-1-(2,6-Dichloro-3-fluorophenyl)-2-fluoroethyl]-1H-pyrrolo[2,3-b]pyridin-5-yl}-5-methyl-1H-pyrazol-1-yl)cyclohexanol]",6.70 to 7.30,6.00 to 6.70,6.70 to 7.30

# Next, values leading:
pIC50 (MKN45 cells),pIC50 (RON),pIC50 (Karpas-299 cells),Compound
≥ 7.30,≥ 6.70,≥ 7.30,"Cc1c(-c2cnc3[nH]cc([C@H](C)c4c(OC(F)F)ccc(F)c4Cl)c3c2)cnn1[C@H]1CC[C@H](N)CC1 [Example 93, trans-4-[4-(3-{(1S)-1-[2-Chloro-6-(difluoromethoxy)-3-fluorophenyl]ethyl}-1H-pyrrolo[2,3-b]pyridin-5-yl)-5-methyl-1H-pyrazol-1-yl]cyclohexanamine]"
≥ 7.30,6.00 to 6.70,≥ 7.30,"COc1ccc(F)c(Cl)c1[C@@H](C)c1c[nH]c2ncc(-c3cnn([C@H]4CC[C@H](N)CC4)c3C)cc12 [Example 58, trans-4-(4-{3-[(1S)-1-(2-Chloro-3-fluoro-6-methoxyphenyl)ethyl]-1H-pyrrolo[2,3-b]pyridin-5-yl}-5-methyl-1H-pyrazol-1-yl)cyclohexanamine]"
≥ 7.30,≥ 6.70,≥ 7.30,"[2H][C@@](C)(c1c(OC(F)F)ccc(F)c1Cl)c1c[nH]c2ncc(-c3cnn([C@H]4CC[C@H](O)CC4)c3C)cc12 [Example 114, trans-4-(4-{3-[(1S)-1-[2-Chloro-6-(difluoromethoxy)-3-fluorophenyl](1-^2H)ethyl]-1H-pyrrolo[2,3-b]pyridin-5-yl}-5-methyl-1H-pyrazol-1-yl)cyclohexanol]"
